The subject of the test is MV-4-11 cells. In words: Gene expression microarray analysis (Affymetrix PrimeView) and GSEA. Type of test: cell-based, human. Details: RFU PODN (11730768_x_at) / Fold change /veh PODN (11730768_x_at) / RFU LINC00158 (11744669_a_at) / Fold change /veh LINC00158 (11744669_a_at) / RFU DUSP10 (11751237_a_at) / Fold change /veh DUSP10 (11751237_a_at) / RFU ID3 (11757404_x_at) / Fold change /veh ID3 (11757404_x_at) / RFU PLEKHG5 (11737974_s_at) / Fold change /veh PLEKHG5 (11737974_s_at) / RFU LRRC4B (11730491_at) / Fold change /veh LRRC4B (11730491_at) / RFU GIMAP4 (11747438_a_at) / Fold change /veh GIMAP4 (11747438_a_at) / RFU KRT8 (11758183_x_at) / Fold change /veh KRT8 (11758183_x_at) / RFU CNN1 (11734310_a_at) / Fold change /veh CNN1 (11734310_a_at) / RFU VPS37D (11726825_at) / Fold change /veh VPS37D (11726825_at) / RFU C10orf10 (11716522_x_at) / Fold change /veh C10orf10 (11716522_x_at) / RFU KIR2DL2 /// KIR2DL4 /// KIR2DL5A /// KIR2DL5B /// KIR2DS1 /// KIR2DS2 /// KIR2DS3 /// KIR2DS4 /// KIR3DL3 /// KIR3DL3 /// KIR3DS1 (11738374_at) / Fold change /veh KIR2DL2 /// KIR2DL4 /// KIR2DL5A /// KIR2DL5B /// KIR2DS1 /// KIR2DS2 /// KIR2DS3 /// KIR2DS4 /// KIR3DL3 /// KIR3DL3 /// KIR3DS1 (11738374_at) / RFU C1QL1 (11718748_at) / Fold change /veh C1QL1 (11718748_at) / RFU TMPRSS4 (11747572_a_at) / Fold change /veh TMPRSS4 (11747572_a_at) / RFU HAMP (11756126_x_at) / Fold change /veh HAMP (11756126_x_at) / RFU RNFT2 (11725882_a_at) / Fold change /veh RNFT2 (11725882_a_at) / RFU NR4A2 (11747474_a_at) / Fold change /veh NR4A2 (11747474_a_at) / RFU ABCC12 (11746883_a_at) / Fold change /veh ABCC12 (11746883_a_at) / RFU TMEM136 (11760407_x_at) / Fold change /veh TMEM136 (11760407_x_at) / RFU CLDN22 /// WWC2 (11732394_at) / Fold change /veh CLDN22 /// WWC2 (11732394_at) / RFU HLA-DPB1 (11760878_x_at) / Fold change /veh HLA-DPB1 (11760878_x_at) / RFU SPINT1 (11716480_a_at) / Fold change /veh SPINT1 (11716480_a_at) / RFU GAP43 (11754022_s_at) / Fold change /veh GAP43 (11754022_s_at) / RFU A4GNT (11735810_at) / Fold change /veh A4GNT (11735810_at) / RFU PRB3 (11715151_x_at) / Fold change /veh PRB3 (11715151_x_at) / RFU TUBB4B (11761932_at) / Fold change /veh TUBB4B (11761932_at) / RFU CAPN14 (11732068_a_at) / Fold change /veh CAPN14 (11732068_a_at) / RFU TMCC2 (11721928_a_at) / Fold change /veh TMCC2 (11721928_a_at) / RFU IRGQ (11745062_a_at) / Fold change /veh IRGQ (11745062_a_at) / RFU FAM174B (11720279_a_at) / Fold change /veh FAM174B (11720279_a_at) / RFU TMPRSS4 (11748680_a_at) / Fold change /veh TMPRSS4 (11748680_a_at) / RFU FAM212B (11763350_a_at) / Fold change /veh FAM212B (11763350_a_at) / RFU PLEKHG5 (11743358_a_at) / Fold change /veh PLEKHG5 (11743358_a_at) / RFU ZSCAN30 (11745921_a_at) / Fold change /veh ZSCAN30 (11745921_a_at) / RFU CMKLR1 (11741424_a_at) / Fold change /veh CMKLR1 (11741424_a_at) / RFU LOC101060620 /// MAPK8IP1 (11723275_at) / Fold change /veh LOC101060620 /// MAPK8IP1 (11723275_at) / RFU SPTSSB (11747773_x_at) / Fold change /veh SPTSSB (11747773_x_at) / RFU PRSS12 (11739890_at) / Fold change /veh PRSS12 (11739890_at) / RFU BIN1 (11741810_x_at) / Fold change /veh BIN1 (11741810_x_at) / RFU WNT11 (11732464_a_at) / Fold change /veh WNT11 (11732464_a_at) / RFU C10orf10 (11716521_a_at) / Fold change /veh C10orf10 (11716521_a_at) / RFU C5orf56 (11738089_at) / Fold change /veh C5orf56 (11738089_at) / RFU CYB561 (11721691_x_at) / Fold change /veh CYB561 (11721691_x_at) / RFU ANKRD19P (11752326_a_at) / Fold change /veh ANKRD19P (11752326_a_at) / RFU OR2T12 /// OR2T33 /// OR2T8 (11738714_s_at) / Fold change /veh OR2T12 /// OR2T33 /// OR2T8 (11738714_s_at) / RFU VCAN (11748164_a_at) / Fold change /veh VCAN (11748164_a_at) / RFU JSRP1 (11732532_at) / Fold change /veh JSRP1 (11732532_at) / RFU KRTAP10-11 (11738290_x_at) / Fold change /veh KRTAP10-11 (11738290_x_at) / RFU MYO3A (11730013_a_at) / Fold change /veh MYO3A (11730013_a_at) / RFU EBF3 (11725865_a_at) / Fold change /veh EBF3 (11725865_a_at) / RFU CAMK2N1 (11719241_x_at) / Fold change /veh CAMK2N1 (11719241_x_at) / RFU C5orf56 (11738088_a_at) / Fold change /veh C5orf56 (11738088_a_at) / RFU OLFML3 (11715873_a_at) / Fold change /veh OLFML3 (11715873_a_at) / RFU LOC100653217 /// NTM (11731650_a_at) / Fold change /veh LOC100653217 /// NTM (11731650_a_at) / RFU MAPK11 (11762145_a_at) / Fold change /veh MAPK11 (11762145_a_at) / RFU FIZ1 (11724087_x_at) / Fold change /veh FIZ1 (11724087_x_at) / RFU OASL (11726364_x_at) / Fold change /veh OASL (11726364_x_at) / RFU SOX15 (11748057_x_at) / Fold change /veh SOX15 (11748057_x_at) / RFU CD79A (11719716_a_at) / Fold change /veh CD79A (11719716_a_at) / RFU HIST1H1D (11736915_at) / Fold change /veh HIST1H1D (11736915_at) / RFU CASKIN2 (11723855_a_at) / Fold change /veh CASKIN2 (11723855_a_at) / RFU LOC730098 (11760151_x_at) / Fold change /veh LOC730098 (11760151_x_at) / RFU OR4N2 (11742367_at) / Fold change /veh OR4N2 (11742367_at) / RFU PRRT2 (11749266_a_at) / Fold change /veh PRRT2 (11749266_a_at) / RFU SNX32 (11753110_a_at) / Fold change /veh SNX32 (11753110_a_at) / RFU CDHR5 (11726645_a_at) / Fold change /veh CDHR5 (11726645_a_at) / RFU RCAN1 (11760418_a_at) / Fold change /veh RCAN1 (11760418_a_at) / RFU FAM167A (11723789_a_at) / Fold change /veh FAM167A (11723789_a_at) / RFU FAM26E (11764081_at) / Fold change /veh FAM26E (11764081_at) / RFU ISYNA1 (11749810_s_at) / Fold change /veh ISYNA1 (11749810_s_at) / RFU ACY1 (11761880_at) / Fold change /veh ACY1 (11761880_at) / RFU 11764098_at / Fold change /veh 11764098_at / RFU SAMD14 (11745864_x_at) / Fold change /veh SAMD14 (11745864_x_at) / RFU NPB (11741838_a_at) / Fold change /veh NPB (11741838_a_at) / RFU TMPRSS6 (11731388_a_at) / Fold change /veh TMPRSS6 (11731388_a_at) / RFU KRTAP10-2 (11738614_at) / Fold change /veh KRTAP10-2 (11738614_at) / RFU ARHGAP8 /// PRR5-ARHGAP8 (11727945_x_at) / Fold change /veh ARHGAP8 /// PRR5-ARHGAP8 (11727945_x_at) / RFU KRTAP5-7 /// NADSYN1 (11734609_at) / Fold change /veh KRTAP5-7 /// NADSYN1 (11734609_at) / RFU RASL12 (11751679_a_at) / Fold change /veh RASL12 (11751679_a_at) / RFU CDKN2B (11736163_a_at) / Fold change /veh CDKN2B (11736163_a_at) / RFU PRF1 (11729649_at) / Fold change /veh PRF1 (11729649_at) / RFU, ZNF638 /// ZNF638-IT1 / Fold change vs veh, ZNF638 /// ZNF638-IT1 / RFU, PANK3 / Fold change vs veh, PANK3 / RFU, SH3YL1 / Fold change vs veh, SH3YL1 / RFU, ZEB2 / Fold change vs veh, ZEB2 / RFU, NRIP1 / Fold change vs veh, NRIP1 / RFU, PTTG1IP / Fold change vs veh, PTTG1IP / RFU, CAPN2 / Fold change vs veh, CAPN2 / RFU, MED14 / Fold change vs veh, MED14 / RFU, SNORA58 / Fold change vs veh, SNORA58 / RFU, C1orf63 / Fold change vs veh, C1orf63 / RFU, LRRFIP1 / Fold change vs veh, LRRFIP1 / RFU, NDUFAF7 / Fold change vs veh, NDUFAF7 / RFU, SLC12A2 / Fold change vs veh, SLC12A2 / RFU, IBTK / Fold change vs veh, IBTK / RFU, ESF1 / Fold change vs veh, ESF1 / Fold change vs veh, TMEM50B / RFU, TAOK1 / Fold change vs veh, TAOK1 / RFU, ACBD3 / Fold change vs veh, ACBD3 / RFU, TMA16 / Fold change vs veh, TMA16 / RFU, RWDD3 / Fold change vs veh, RWDD3 / RFU, BCAT1 / Fold change vs veh, BCAT1 / RFU, EDEM3 / Fold change vs veh, EDEM3 / RFU, TMEM33 / Fold change vs veh, TMEM33 / RFU, WDR75 / Fold change vs veh, WDR75 / RFU, AHCTF1 / Fold change vs veh, AHCTF1 / RFU, TFRC / Fold change vs veh, TFRC / RFU, ZDHHC17 / Fold change vs veh, ZDHHC17 / RFU, NOM1 / Fold change vs veh, NOM1 / RFU, ARL8B / Fold change vs veh, ARL8B / RFU, ZBTB11 / Fold change vs veh, ZBTB11 / RFU, TAMM41 / Fold change vs veh, TAMM41 / RFU, KIAA1704 /// LOC100996395 / Fold change vs veh, KIAA1704 /// LOC100996395 / RFU, ING1 / Fold change vs veh, ING1 / RFU, TRMT61B / Fold change vs veh, TRMT61B / RFU, FUBP3 / Fold change vs veh, FUBP3 / RFU, TP53 / Fold change vs veh, TP53 / RFU, TNKS2 / Fold change vs veh, TNKS2 / RFU, ZFP14 / Fold change vs veh, ZFP14 / RFU, ACTR2 / Fold change vs veh, ACTR2 / RFU, PPP3R1 / Fold change vs veh, PPP3R1 / RFU, PIK3R1 / Fold change vs veh, PIK3R1 / RFU, HNRNPA1 / Fold change vs veh, HNRNPA1 / RFU, RNF170 / Fold change vs veh, RNF170 / RFU, ZNF28 / Fold change vs veh, ZNF28 / RFU, RNGTT / Fold change vs veh, RNGTT / RFU, OGT / Fold change vs veh, OGT / RFU, BRD1 / Fold change vs veh, BRD1 / RFU, MARS / Fold change vs veh, MARS / RFU, ZNF655 / Fold change vs veh, ZNF655 / RFU, FAHD1 / Fold change vs veh, FAHD1 / RFU, BDP1 / Fold change vs veh, BDP1 / RFU, LRRCC1 / Fold change vs veh, LRRCC1 / RFU, ARID1A / Fold change vs veh, ARID1A / RFU, ZNF146 / Fold change vs veh, ZNF146 / RFU, ZNF330 / Fold change vs veh, ZNF330 / RFU, GPN3 / Fold change vs veh, GPN3 / RFU, C9orf123 / Fold change vs veh, C9orf123 / RFU, N4BP2L2 / Fold change vs veh, N4BP2L2 / RFU, ARFIP1 / Fold change vs veh, ARFIP1 / RFU, FAM179B / Fold change vs veh, FAM179B / RFU, BCL10 / Fold change vs veh, BCL10 / RFU, UHRF1BP1L / Fold change vs veh, UHRF1BP1L / RFU, BET1 / Fold change vs veh, BET1 / RFU, CNOT2 / Fold change vs veh, CNOT2 / RFU, ZNF268 / Fold change vs veh, ZNF268 / Fold change vs veh, ZNF507 / RFU, DGCR2 / Fold change vs veh, DGCR2 / RFU, WDSUB1 / Fold change vs veh, WDSUB1 / Fold change vs veh, HSP90B1 /// MIR3652 / RFU, ADSS / Fold change vs veh, ADSS / RFU, GK / Fold change vs veh, GK / RFU, ZNF148 / Fold change vs veh, ZNF148 / RFU, TAF9 / Fold change vs veh, TAF9 / RFU, SLC1A5 / Fold change vs veh, SLC1A5 / RFU, SLMO2 / Fold change vs veh, SLMO2 / RFU, ABCC4 / Fold change vs veh, ABCC4 / RFU, LOC101060439 /// RAP1B / Fold change vs veh, LOC101060439 /// RAP1B / RFU, RFX7 / Fold change vs veh, RFX7 / RFU, GTPBP10 / Fold change vs veh, GTPBP10 / RFU, CNEP1R1 / Fold change vs veh, CNEP1R1 / RFU, BIVM-ERCC5 /// ERCC5 / Fold change vs veh, BIVM-ERCC5 /// ERCC5 / RFU, ILF3 / Fold change vs veh, ILF3 / RFU 11762660_at / Fold change /veh 11762660_at / RFU VCAN (11757783_s_at) / Fold change /veh VCAN (11757783_s_at) / RFU DDX43 (11728927_at) / Fold change /veh DDX43 (11728927_at) / RFU KRT8 (11758188_x_at) / Fold change /veh KRT8 (11758188_x_at) / RFU NKD1 (11759106_at) / Fold change /veh NKD1 (11759106_at) / RFU SRD5A1 (11742802_a_at) / Fold change /veh SRD5A1 (11742802_a_at) / RFU TPSAB1 /// TPSB2 (11721975_s_at) / Fold change /veh TPSAB1 /// TPSB2 (11721975_s_at) / RFU GSTM3 (11746129_a_at) / Fold change /veh GSTM3 (11746129_a_at) / RFU IL23R (11737362_x_at) / Fold change /veh IL23R (11737362_x_at) / RFU TMEM51 (11727254_a_at) / Fold change /veh TMEM51 (11727254_a_at) / RFU PIWIL2 (11732686_x_at) / Fold change /veh PIWIL2 (11732686_x_at) / RFU ORM1 (11744905_x_at) / Fold change /veh ORM1 (11744905_x_at) / RFU CCDC152 (11743942_at) / Fold change /veh CCDC152 (11743942_at) / RFU ECM1 (11717891_a_at) / Fold change /veh ECM1 (11717891_a_at) / RFU IL23R (11748794_a_at) / Fold change /veh IL23R (11748794_a_at) / RFU TNFAIP8L3 (11732012_x_at) / Fold change /veh TNFAIP8L3 (11732012_x_at) / RFU MBOAT4 (11741988_at) / Fold change /veh MBOAT4 (11741988_at) / RFU 11764193_at / Fold change /veh 11764193_at / RFU TMEM53 (11763286_at) / Fold change /veh TMEM53 (11763286_at) / RFU MAGEB2 (11727129_at) / Fold change /veh MAGEB2 (11727129_at) / RFU TMEM200A (11744735_a_at) / Fold change /veh TMEM200A (11744735_a_at) / RFU CCDC152 (11751479_a_at) / Fold change /veh CCDC152 (11751479_a_at) / RFU FAM211A (11726209_a_at) / Fold change /veh FAM211A (11726209_a_at) / RFU RGS16 (11746705_a_at) / Fold change /veh RGS16 (11746705_a_at) / RFU VCAN (11755009_s_at) / Fold change /veh VCAN (11755009_s_at) / RFU RHOB (11743442_s_at) / Fold change /veh RHOB (11743442_s_at) / RFU RGS16 (11720943_a_at) / Fold change /veh RGS16 (11720943_a_at) / RFU RGS16 (11720944_at) / Fold change /veh RGS16 (11720944_at) / RFU, VPS4B / Fold change vs veh, VPS4B / RFU, CREB1 / Fold change vs veh, CREB1 / RFU, DNAJC13 / Fold change vs veh, DNAJC13 / RFU, GNAQ / Fold change vs veh, GNAQ / RFU, CDK5R1 / Fold change vs veh, CDK5R1 / RFU, ZRANB3 / Fold change vs veh, ZRANB3 / RFU, CUL4A / Fold change vs veh, CUL4A / RFU, CCNY / Fold change vs veh, CCNY / RFU, UFL1 / Fold change vs veh, UFL1 / RFU, COG3 / Fold change vs veh, COG3 / RFU, DIAPH2 / Fold change vs veh, DIAPH2 / RFU, SKA2 / Fold change vs veh, SKA2 / RFU, AFF3 / Fold change vs veh, AFF3 / RFU, LMF1 / Fold change vs veh, LMF1 / RFU, IPO11 / Fold change vs veh, IPO11 / RFU, DFFB / Fold change vs veh, DFFB / RFU, FOXP1 / Fold change vs veh, FOXP1 / RFU, CARD8 / Fold change vs veh, CARD8 / RFU, STRN3 / Fold change vs veh, STRN3 / RFU, ADK / Fold change vs veh, ADK / RFU, RASSF2 / Fold change vs veh, RASSF2 / RFU, WIPF1 / Fold change vs veh, WIPF1 / RFU, LARP1B / Fold change vs veh, LARP1B / RFU, RASA1 / Fold change vs veh, RASA1 / RFU, RB1 / Fold change vs veh, RB1 / RFU, PPFIA1 / Fold change vs veh, PPFIA1 / RFU, MAT2A / Fold change vs veh, MAT2A / RFU, CCT5 / Fold change vs veh, CCT5 / RFU, WDR92 / Fold change vs veh, WDR92 / RFU, CUX1 / Fold change vs veh, CUX1 / RFU, TTC7A / Fold change vs veh, TTC7A / RFU, TMEM135 / Fold change vs veh, TMEM135 / RFU, DEPTOR / Fold change vs veh, DEPTOR / RFU, CPM / Fold change vs veh, CPM / RFU, DNAJB6 / Fold change vs veh, DNAJB6 / RFU, CACNA2D3 / Fold change vs veh, CACNA2D3 / RFU, DTX4 / Fold change vs veh, DTX4 / RFU, TFCP2 / Fold change vs veh, TFCP2 / RFU, GMCL1 /// GMCL1P1 / Fold change vs veh, GMCL1 /// GMCL1P1 / RFU, AEBP2 / Fold change vs veh, AEBP2 / RFU, SNHG1 /// SNORD22 /// SNORD25 /// SNORD26 /// SNORD27 /// SNORD28 /// SNORD29 /// SNORD31 / Fold change vs veh, SNHG1 /// SNORD22 /// SNORD25 /// SNORD26 /// SNORD27 /// SNORD28 /// SNORD29 /// SNORD31 / Fold change (Aza/veh), C12orf56 (ProbeSet 11735607_a_at) / Fold change (ACY-1035/veh), C12orf56 (ProbeSet 11735607_a_at) / Fold change (Aza/veh), FGFR1OP (ProbeSet 11751329_s_at) / Fold change (ACY-1035/veh), FGFR1OP (ProbeSet 11751329_s_at) / Fold change (Aza/veh), VPS36 (ProbeSet 11739960_a_at) / Fold change (ACY-1035/veh), VPS36 (ProbeSet 11739960_a_at) / RFU SYPL1 (11715823_x_at) / Fold change /veh SYPL1 (11715823_x_at) / RFU IGFBP7 (11715501_s_at) / Fold change /veh IGFBP7 (11715501_s_at) / RFU REEP3 (11722064_at) / Fold change /veh REEP3 (11722064_at) / RFU IGLL1 (11728026_x_at) / Fold change /veh IGLL1 (11728026_x_at): dose or concentration left out as unconfirmed. The note with it: ProbeSet 11721611_a_at; LIST D.

The source of these data is publication PMC5218480 (PLoS ONE, 2017).

With `Nc1ccc(-c2cccs2)cc1NC(=O)c1ccc2c(c1)cc(C1CC1)n2CCN1CCOCC1` [ACY-1035], the “RFU, IPO11” value came to 82.15 RFU.
